Results as given in the NIST ThermoML archive (doi:10.1016/j.fluid.2015.10.027).

Test: heat capacity at constant pressure per volume; xn = mol fraction of the nth substance listed
Settings: DSC

CC1CCCC(C)N1 (stereo not drawn) [2,6-dimethylpiperidine] + O
Liquid mixture 1, x1 = 0.055
Settings	heat capacity [J/K/m3]
264 K	4559000
264.47 K	4560000
264.95 K	4546000
265.42 K	4529000
265.9 K	4518000
266.37 K	4505000
266.84 K	4492000
267.32 K	4480000
267.79 K	4471000
268.26 K	4448000
268.74 K	4442000
269.21 K	4429000
269.68 K	4420000
270.16 K	4409000
270.63 K	4398000
271.1 K	4391000
271.58 K	4375000
272.05 K	4367000
272.52 K	4356000
273 K	4342000
273.47 K	4341000
273.94 K	4336000
274.42 K	4322000
274.89 K	4313000
275.36 K	4305000
275.84 K	4293000
276.31 K	4289000
276.78 K	4278000
277.25 K	4274000
277.73 K	4266000
278.2 K	4260000
278.68 K	4252000
279.15 K	4250000
279.62 K	4239000
280.1 K	4237000
280.57 K	4227000
281.04 K	4227000
281.51 K	4221000
281.99 K	4216000
282.46 K	4215000
282.94 K	4208000
283.41 K	4206000
283.88 K	4199000
284.36 K	4195000
284.83 K	4191000
285.3 K	4189000
285.77 K	4182000
286.25 K	4178000
286.72 K	4177000
287.19 K	4174000
287.67 K	4174000
288.14 K	4172000
288.61 K	4170000
289.09 K	4171000
289.56 K	4167000
290.03 K	4166000
290.51 K	4165000
290.98 K	4166000
291.45 K	4165000
291.93 K	4166000
292.6 K	4164000
292.81 K	4147000
293.02 K	4141000
293.23 K	4164000
293.45 K	4134000
293.66 K	4144000
293.87 K	4164000
294.08 K	4166000
294.3 K	4164000
294.51 K	4144000
294.72 K	4183000
294.93 K	4155000
295.14 K	4142000
295.36 K	4144000
295.57 K	4153000
295.78 K	4178000
295.99 K	4155000
296.2 K	4175000
296.42 K	4213000
296.63 K	4189000
296.84 K	4188000
297.06 K	4228000
297.27 K	4210000
297.48 K	4217000
297.69 K	4232000
297.9 K	4249000
298.12 K	4247000
298.33 K	4277000
298.54 K	4280000
298.75 K	4295000
298.96 K	4312000
299.18 K	4375000
299.39 K	4534000

102.6 kPa, Liquid, x1 = 0.055
Settings	heat capacity [J/K/m3]
299.6 K	5314000
299.81 K	5077000
300.03 K	5010000
300.24 K	4873000
300.45 K	4815000
300.66 K	4801000
300.88 K	4772000
301.09 K	4785000
301.3 K	4742000
301.51 K	4632000
301.73 K	4641000
301.94 K	4672000
302.15 K	4625000
302.36 K	4675000
302.57 K	4597000
302.79 K	4600000
303 K	4544000
303.21 K	4578000
303.42 K	4592000
303.64 K	4555000
303.85 K	4564000
304.06 K	4532000
304.27 K	4520000
304.49 K	4530000
304.7 K	4519000
304.91 K	4468000
305.12 K	4514000
305.33 K	4463000
305.55 K	4423000
305.76 K	4443000

Cc1cccc(C)n1 [2,6-dimethylpyridine] + O
Liquid mixture 1, x1 = 0.066
Settings	heat capacity [J/K/m3]
270.67 K	3943000
271.17 K	3939000
271.67 K	3932000
272.17 K	3933000
272.67 K	3929000
273.17 K	3934000
273.67 K	3928000
274.17 K	3930000
274.67 K	3924000
275.17 K	3925000
275.67 K	3922000
276.17 K	3920000
276.67 K	3918000
277.17 K	3918000
277.67 K	3919000
278.17 K	3918000
278.67 K	3916000
279.17 K	3913000
279.67 K	3916000
280.17 K	3914000
280.67 K	3914000
281.18 K	3913000
281.68 K	3910000
282.18 K	3910000
282.68 K	3907000
283.18 K	3907000
283.68 K	3904000
284.18 K	3907000
284.68 K	3905000
285.18 K	3909000
285.68 K	3905000
286.18 K	3903000
286.68 K	3907000
287.18 K	3907000
287.68 K	3910000
288.18 K	3913000
288.68 K	3913000
289.18 K	3912000
289.68 K	3912000
290.18 K	3910000
290.68 K	3913000
291.18 K	3912000
291.68 K	3913000
292.18 K	3916000
292.68 K	3917000
293.18 K	3915000
293.68 K	3911000
294.18 K	3914000
294.68 K	3914000
295.18 K	3913000
295.68 K	3912000
296.18 K	3913000
296.68 K	3912000
297.18 K	3914000
297.69 K	3914000
298.19 K	3918000
298.69 K	3919000
299.19 K	3916000
299.78 K	3918000
299.99 K	3916000
300.2 K	3912000
300.41 K	3920000
300.62 K	3927000
300.84 K	3944000
301.05 K	3932000
301.26 K	3930000
301.47 K	3942000
301.69 K	3950000
301.9 K	3947000
302.11 K	3945000
302.32 K	3932000
302.54 K	3934000
302.75 K	3933000
302.96 K	3962000
303.17 K	3969000
303.38 K	3938000
303.6 K	3938000
303.81 K	3935000
304.02 K	3948000
304.23 K	3973000
304.44 K	3963000
304.66 K	3960000
304.87 K	3953000
305.08 K	3960000
305.29 K	3975000
305.51 K	3976000
305.72 K	3956000
305.93 K	4006000
306.14 K	4011000
306.36 K	4082000
306.57 K	4075000

102.6 kPa, Liquid, x1 = 0.066
Settings	heat capacity [J/K/m3]
306.78 K	4520000
306.99 K	4372000
307.2 K	4347000
307.42 K	4321000
307.63 K	4254000
307.84 K	4227000
308.05 K	4182000
308.27 K	4223000
308.48 K	4199000
308.69 K	4189000
308.9 K	4170000
309.12 K	4188000
309.33 K	4206000
309.54 K	4165000
309.75 K	4175000
309.96 K	4206000
310.18 K	4189000
310.39 K	4172000
310.6 K	4170000
310.81 K	4154000
311.03 K	4103000
311.24 K	4121000
311.45 K	4142000
311.66 K	4101000
311.88 K	4141000
312.09 K	4083000
312.3 K	4117000
312.51 K	4078000
312.73 K	4100000

CC1CCCC(C)N1 (stereo not drawn) [2,6-dimethylpiperidine] + [2H]O[2H]
Liquid mixture 1, x1 = 0.054
Settings	heat capacity [J/K/m3]
270.36 K	4851000
270.67 K	4851000
270.98 K	4850000
271.3 K	4843000
271.61 K	4841000
271.92 K	4831000
272.23 K	4822000
272.54 K	4813000
272.85 K	4803000
273.16 K	4797000
273.47 K	4793000
273.78 K	4785000
274.1 K	4778000
274.41 K	4775000
274.72 K	4768000
275.03 K	4764000
275.34 K	4752000
275.65 K	4755000
275.96 K	4749000
276.27 K	4742000
276.58 K	4732000
276.89 K	4728000
277.21 K	4720000
277.52 K	4717000
277.83 K	4706000
278.14 K	4700000
278.45 K	4697000
278.76 K	4694000
279.07 K	4693000
279.38 K	4689000
279.69 K	4685000
280 K	4677000
280.32 K	4675000
280.63 K	4668000
280.94 K	4667000
281.25 K	4661000
281.56 K	4654000
281.87 K	4654000
282.18 K	4653000
282.49 K	4642000
282.8 K	4640000
283.12 K	4641000
283.43 K	4645000
283.74 K	4645000
284.05 K	4638000
284.36 K	4635000
284.67 K	4627000
284.98 K	4628000
285.29 K	4633000
285.6 K	4630000
285.91 K	4623000
286.23 K	4610000
286.54 K	4617000
286.85 K	4623000
287.16 K	4612000
287.47 K	4611000
287.78 K	4609000
288.09 K	4606000
288.6 K	4566000
288.82 K	4558000
289.05 K	4578000
289.28 K	4580000
289.51 K	4581000
289.74 K	4539000
289.96 K	4559000
290.19 K	4609000
290.42 K	4604000
290.65 K	4587000
290.88 K	4581000
291.11 K	4554000
291.33 K	4556000
291.56 K	4590000
291.79 K	4592000
292.02 K	4589000
292.25 K	4578000
292.48 K	4643000
292.71 K	4602000
292.94 K	4606000
293.16 K	4623000
293.39 K	4660000
293.62 K	4615000
293.85 K	4629000
294.08 K	4700000
294.31 K	4655000
294.53 K	4669000
294.76 K	4707000
294.99 K	4644000
295.22 K	4708000
295.45 K	4694000
295.68 K	4733000
295.9 K	4759000
296.13 K	4861000
296.36 K	5146000

102.6 kPa, Liquid, x1 = 0.054
Settings	heat capacity [J/K/m3]
296.59 K	5567000
296.82 K	5424000
297.05 K	5334000
297.28 K	5260000
297.5 K	5164000
297.73 K	5179000
297.96 K	5136000
298.19 K	5070000
298.42 K	5083000
298.65 K	5094000
298.88 K	5093000
299.1 K	5111000
299.33 K	5023000
299.56 K	5049000
299.79 K	5063000
300.02 K	5028000
300.25 K	5015000
300.48 K	5009000
300.7 K	4961000
300.93 K	4977000
301.16 K	4985000
301.39 K	4958000
301.62 K	4957000
301.85 K	4945000
302.07 K	4916000
302.3 K	4889000
302.53 K	4922000
